# Earlier results as cited in patent publication US11638429B2, “Hypochlorous acid disinfectant and its production method” (SUPER AQUA INTERNATIONAL CO., LTD., priority 2020, dated 2023).
# Test system: coliform
# Conditions: versus hypochlorite ion (CLO—); FIG. 2, U.S. EPA
smiles,measurement,value
"OCl [hypochlorous acid (HCLO), hypochlorous acid]",sterilization of hypochlorous acid (HCLO) relative to hypochlorite ion (CLO—),80 times
